Assays:
[1] = system: barnyardgrass; test: Test A preemergence; type: in vivo, Echinochloa crus-galli; settings: for Barnyardgrass plant response rating (0 to 100 scale, 0 is no effect, 100 is complete control): 125 g ai/ha; for Barnyardgrass plant response rating: 500 g ai/ha, 0 to 100 scale where 0 is no effect and 100 is complete control
Method in brief: (§1)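 Scoring: eye-based comparison with untreated controls, 0 for no effect through 100 for complete control, at about day 10. Treatments: directed soil spray preemergence; foliar spray postemergence on 2–10 cm plants at the one- to two-leaf stage. Medium: loam soil with sand.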

[2] = system: large (Lg) crabgrass; test: Test A preemergence; type: in vivo, Digitaria sanguinalis; settings: for Crabgrass, Large plant response rating (0 to 100 scale): 125 g ai/ha; for Crabgrass, Large plant response rating: 500 g ai/ha, 0 to 100 scale where 0 is no effect and 100 is complete control
Method in brief: as §1

[3] = system: giant foxtail; test: Test A preemergence; type: in vivo, Setaria faberii; settings: for Foxtail, Giant plant response rating (0 to 100 scale): 125 g ai/ha; for Foxtail, Giant plant response rating: 500 g ai/ha, 0 to 100 scale where 0 is no effect and 100 is complete control
Method in brief: as §1

[4] = system: morningglory; test: Test A preemergence; type: in vivo, Ipomoea spp.; settings: for Morningglory plant response rating (0 to 100 scale): 125 g ai/ha; for Morningglory plant response rating: 500 g ai/ha, 0 to 100 scale where 0 is no effect and 100 is complete control
Method in brief: as §1

[5] = system: pigweed; test: Test A preemergence; type: in vivo, Amaranthus retroflexus; settings: for Pigweed plant response rating (0 to 100 scale): 125 g ai/ha; for Pigweed plant response rating: 500 g ai/ha, 0 to 100 scale where 0 is no effect and 100 is complete control
Method in brief: as §1

[6] = system: velvetleaf; test: Test A preemergence; type: in vivo, Abutilon theophrasti; settings: for Velvetleaf plant response rating (0 to 100 scale): 125 g ai/ha; for Velvetleaf plant response rating: 500 g ai/ha, 0 to 100 scale where 0 is no effect and 100 is complete control
Method in brief: as §1

[7] = system: wheat; test: Test A preemergence; type: in vivo, Triticum aestivum; settings: for Wheat plant response rating (0 to 100 scale): 125 g ai/ha; for Wheat plant response rating: 500 g ai/ha, 0 to 100 scale where 0 is no effect and 100 is complete control
Method in brief: as §1

[8] = system: corn; test: Test A preemergence; type: in vivo, Zea mays; settings: for Corn plant response rating (0 to 100 scale): 125 g ai/ha; for Corn plant response rating: 500 g ai/ha, 0 to 100 scale where 0 is no effect and 100 is complete control
Method in brief: as §1

[9] = system: barnyardgrass; test: Test A postemergence; type: in vivo, Echinochloa crus-galli
Method in brief: as §1

[10] = system: large (Lg) crabgrass; test: Test A postemergence; type: in vivo, Digitaria sanguinalis
Method in brief: as §1

[11] = system: giant foxtail; test: Test A postemergence; type: in vivo, Setaria faberii
Method in brief: as §1

[12] = system: morningglory; test: Test A postemergence; type: in vivo, Ipomoea spp.
Method in brief: as §1

[13] = system: pigweed; test: Test A postemergence; type: in vivo, Amaranthus retroflexus
Method in brief: as §1

[14] = system: velvetleaf; test: Test A postemergence; type: in vivo, Abutilon theophrasti
Method in brief: as §1

[15] = system: wheat; test: Test A postemergence; type: in vivo, Triticum aestivum
Method in brief: as §1

[16] = system: corn; test: Test A postemergence; type: in vivo, Zea mays
Method in brief: as §1

[17] = system: rice; test: Test B flooded paddy test; type: in vivo, Oryza sativa; settings: Flood, 250 g ai/ha; 0 to 100 scale where 0 is no effect and 100 is complete control
Method in brief: (§2)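 Plants at 2-leaf stage; pots flooded to 3 cm above soil and compound applied directly into paddy water, depth held throughout. After 13 to 15 days in greenhouse, visual rating versus controls on 0 (no effect) to 100 (complete control) scale.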

[18] = system: sedge, umbrella; test: Test B flooded paddy test; type: in vivo, Cyperus difformis; settings: Flood, 250 g ai/ha; 0 to 100 scale where 0 is no effect and 100 is complete control
Method in brief: as §2

[19] = system: Heteranthera limosa; test: Test B flooded paddy test; type: in vivo; settings: Flood, 250 g ai/ha; 0 to 100 scale where 0 is no effect and 100 is complete control
Method in brief: as §2

[20] = system: barnyardgrass; test: Test B flooded paddy test; type: in vivo, Echinochloa crus-galli; settings: Flood, 250 g ai/ha; 0 to 100 scale where 0 is no effect and 100 is complete control
Method in brief: as §2

[21] = system: rice; test: Test C flooded paddy test; type: in vivo, Oryza sativa; settings: Flood, scale 0 to 100 (0 no effect, 100 complete control), 13 to 15 days
Method in brief: (§3)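 Pots were flooded to 3 cm above the soil surface at treatment, compound applied directly to the paddy water, and that depth held throughout. Plants were kept in a greenhouse for 13 to 15 days, then visually rated against untreated controls.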

[22] = system: sedge, umbrella; test: Test C flooded paddy test; type: in vivo, Cyperus difformis; settings: Flood, scale 0 to 100 (0 no effect, 100 complete control), 13 to 15 days
Method in brief: as §3

[23] = system: ducksalad; test: Test C flooded paddy test; type: in vivo, Heteranthera limosa; settings: Flood, scale 0 to 100 (0 no effect, 100 complete control), 13 to 15 days
From the text: (§4) At time of treatment, test pots were flooded to 3 cm above the soil surface, treated by application of test compounds directly to the paddy water, and then maintained at that water depth for the duration of the test. Treated plants and controls were maintained in a greenhouse for 13 to 15 days, after which time all species were compared to controls and visually evaluated. […] A dash (-) response means no test result.

[24] = system: barnyardgrass; test: Test C flooded paddy test; type: in vivo, Echinochloa crus-galli; settings: Flood, scale 0 to 100 (0 no effect, 100 complete control), 13 to 15 days
From the text: as §4

[25] = 125 g ai/ha, 0 to 100 scale where 0 is no effect and 100 is complete control
[26] = 500 g ai/ha, 0 to 100 scale where 0 is no effect and 100 is complete control
[27] = 125 g ai/ha, 0 to 100 scale, 0 no effect, 100 complete control

In the case of `COc1cnc(Oc2ccccc2-n2cc(Br)cn2)nc1` [Compound 234], the “Barnyardgrass plant response rating (0 to 100 scale, 0 is no effect, 100 is complete control)” value [1] is reported as 20, the “Barnyardgrass plant response rating” value [1] is reported as 100 and the “Crabgrass, Large plant response rating (0 to 100 scale)” value [2] is reported as 90. The “Crabgrass, Large plant response rating” value [2] was 100, the “Foxtail, Giant plant response rating (0 to 100 scale)” value [3] was 60 and the “Foxtail, Giant plant response rating” value [3] was 90. For the same compound, the “Morningglory plant response rating (0 to 100 scale)” value [4] was 0, the “Morningglory plant response rating” value [4] was 100 and the “Pigweed plant response rating (0 to 100 scale)” value [5] was 90. For the same compound, the “Pigweed plant response rating” value [5] was 100, the “Velvetleaf plant response rating (0 to 100 scale)” value [6] was 40 and the “Velvetleaf plant response rating” value [6] was 100. For the same compound, the “Wheat plant response rating (0 to 100 scale)” value [7] was 0, the “Wheat plant response rating” value [7] was 0 and the “Corn plant response rating (0 to 100 scale)” value [8] was 0. For the same compound, the “Corn plant response rating” value [8] was 90, the “Barnyardgrass plant response rating” value [9, 25] was 20 and the “Plant response rating, Barnyardgrass” value [9, 26] was 70. For the same compound, the “Crabgrass, Large plant response rating” value [10, 25] was 20, the “Plant response rating, Crabgrass, Large” value [10, 26] was 60 and the “Foxtail, Giant plant response rating” value [11, 25] was 30. For the same compound, the “Plant response rating, Foxtail, Giant” value [11, 26] was 70, the “Morningglory plant response rating” value [12, 25] was 40 and the “Plant response rating, Morningglory” value [12, 26] was 60. For the same compound, the “Pigweed plant response rating” value [13, 25] was 100, the “Plant response rating, Pigweed” value [13, 26] was 100 and the “Velvetleaf plant response rating” value [14, 25] was 70. The “Plant response rating, Velvetleaf” value [14, 26] was 100, the “Wheat plant response rating” value [15, 25] was 20 and the “Plant response rating, Wheat” value [15, 26] was 20. The “Corn plant response rating” value [16, 25] was 20, the “Plant response rating, Corn” value [16, 26] was 30 and the “Plant response rating, Rice” value [17] was 20. The “Plant response rating, Sedge, Umbrella” value [18] was 90, the “Plant response rating, Ducksalad” value [19] was 90 and the “Plant response rating, Barnyardgrass” value [20] was 20. For the same compound, the “Plant response rating, Rice” value ([21]; 31 g ai/ha) was 0, the “Plant response rating, Rice” value ([21]; 62 g ai/ha) was 0 and the “Plant response rating, Rice” value ([21]; 125 g ai/ha) was 0. For the same compound, the “Plant response rating, Rice” value ([21]; 250 g ai/ha) was 0, the “Plant response rating, Sedge, Umbrella” value ([22]; 31 g ai/ha) was 0 and the “Plant response rating, Sedge, Umbrella” value ([22]; 62 g ai/ha) was 0. The “Plant response rating, Sedge, Umbrella” value ([22]; 125 g ai/ha) was 0, the “Plant response rating, Sedge, Umbrella” value ([22]; 250 g ai/ha) was 40 and the “Plant response rating, Ducksalad” value ([23]; 31 g ai/ha) was 0. For the same compound, the “Plant response rating, Ducksalad” value ([23]; 62 g ai/ha) was 0, the “Plant response rating, Ducksalad” value ([23]; 125 g ai/ha) was 0 and the “Plant response rating, Ducksalad” value ([23]; 250 g ai/ha) was 30. For the same compound, the “Plant response rating, Barnyardgrass” value ([24]; 31 g ai/ha) was 0, the “Plant response rating, Barnyardgrass” value ([24]; 62 g ai/ha) was 0 and the “Plant response rating, Barnyardgrass” value ([24]; 125 g ai/ha) was 0. For the same compound, the “Plant response rating, Barnyardgrass” value ([24]; 250 g ai/ha) was 0.
`C[Si](C)(C)C#Cc1cccc(Oc2ncc(Cl)cn2)c1-n1cc(Br)cn1` [Compound 293] was tested, and the “Barnyardgrass plant response rating (0 to 100 scale, 0 is no effect, 100 is complete control)” value [1] was 0, the “Barnyardgrass plant response rating” value [1] was 10 and the “Crabgrass, Large plant response rating (0 to 100 scale)” value [2] was 40. The “Crabgrass, Large plant response rating” value [2] was 90, the “Foxtail, Giant plant response rating (0 to 100 scale)” value [3] was 20 and the “Foxtail, Giant plant response rating” value [3] was 90. The “Morningglory plant response rating (0 to 100 scale)” value [4] was 0, the “Morningglory plant response rating” value [4] was 0 and the “Pigweed plant response rating (0 to 100 scale)” value [5] was 20. The “Pigweed plant response rating” value [5] was 80, the “Velvetleaf plant response rating (0 to 100 scale)” value [6] was 0 and the “Velvetleaf plant response rating” value [6] was 0. For the same compound, the “Wheat plant response rating (0 to 100 scale)” value [7] was 0, the “Wheat plant response rating” value [7] was 0 and the “Corn plant response rating (0 to 100 scale)” value [8] was 0. For the same compound, the “Corn plant response rating” value [8] was 0, the “Plant response rating, Barnyardgrass” value [9, 27] was 10 and the “Plant response rating, Barnyardgrass” value [9, 26] was 10. The “Plant response rating, Crabgrass, Large” value [10, 27] was 20, the “Plant response rating, Crabgrass, Large” value [10, 26] was 30 and the “Plant response rating, Foxtail, Giant” value [11, 27] was 20. For the same compound, the “Plant response rating, Foxtail, Giant” value [11, 26] was 30, the “Plant response rating, Morningglory” value [12, 27] was 10 and the “Plant response rating, Morningglory” value [12, 26] was 30. The “Plant response rating, Pigweed” value [13, 27] was 60, the “Plant response rating, Pigweed” value [13, 26] was 90 and the “Plant response rating, Velvetleaf” value [14, 27] was 60. For the same compound, the “Plant response rating, Velvetleaf” value [14, 26] was 80, the “Plant response rating, Wheat” value [15, 27] was 0 and the “Plant response rating, Wheat” value [15, 26] was 0. For the same compound, the “Plant response rating, Corn” value [16, 27] was 0, the “Plant response rating, Corn” value [16, 26] was 20 and the “Plant response rating, Rice” value [17] was 0. The “Plant response rating, Sedge, Umbrella” value [18] was 80, the “Plant response rating, Ducksalad” value [19] was 80 and the “Plant response rating, Barnyardgrass” value [20] was 0. For the same compound, the “Plant response rating, Rice” value ([21]; 31 g ai/ha) was 0, the “Plant response rating, Rice” value ([21]; 62 g ai/ha) was 0 and the “Plant response rating, Rice” value ([21]; 125 g ai/ha) was 0. The “Plant response rating, Sedge, Umbrella” value ([22]; 31 g ai/ha) was 60, the “Plant response rating, Sedge, Umbrella” value ([22]; 62 g ai/ha) was 75 and the “Plant response rating, Sedge, Umbrella” value ([22]; 125 g ai/ha) was 85. For the same compound, the “Plant response rating, Ducksalad” value ([23]; 31 g ai/ha) was 30, the “Plant response rating, Ducksalad” value ([23]; 62 g ai/ha) was 40 and the “Plant response rating, Ducksalad” value ([23]; 125 g ai/ha) was 75. For the same compound, the “Plant response rating, Barnyardgrass” value ([24]; 31 g ai/ha) was 0, the “Plant response rating, Barnyardgrass” value ([24]; 62 g ai/ha) was 0 and the “Plant response rating, Barnyardgrass” value ([24]; 125 g ai/ha) was 0.

Source: patent US9695155B2, “Herbicidal substituted pyrimidinyloxy benzene compounds” (E. I. DU PONT DE NEMOURS AND COMPANY, priority 2013, dated 2017)
